# Reference: US20030171424A1, “Intravenous formulation of artelinic acid for treatment of severe and complicated malaria” (priority 2002, published 2003)
# What was measured:
# [1] = Stability of bulk salt and solutions on standing; assay type: physicochemical
# Source text: The precipitates were identified by NMR and x-ray crystallography to be pure artelinic acid.
# Feasibility of using preformed AL salts with three basic amino acids, L-lysine, L-arginine or L-histidine for AL intravenous formulation were studied. The basicity of histidine is too weak to form water soluble AL-histidine salt. […] Therefore, L-lysine was deemed the most feasible.
# AL/LY is soluble in water, saline, glucose solution or any IV injectable (neutral or basic) water solution. […] Therefore, for practical purpose, the preferred vehicle for intravenous injection is a normal saline or 5% glucose solution containing 0.1-0.5% L-lysine. The final osmolarity is around 290 mosm/kg.
# [2] = cited from earlier work; for CNS toxicity versus oil soluble analogs such as artemether and arteether: rats and dogs; for CNS toxicity: chronically dosed rats and dogs
# [3] = Method: The most commonly used water soluble salt for acidic drugs is sodium salt. The sodium salt of artelinic acid was prepared in our laboratory by dissolving artelinic acid in a slightly less than one equivalent mole of sodium hydroxide solution. The slight excess amount of insoluble artelinic acid was removed by extraction of the mixture with diethyl ether. The aqueous layer was evaporated under reduced pressure using a rotary evaporator to remove the small amount of volatile diethyl ether, and then lyophilized to give sodium artelinate as a white powder.
# P. knowlesi = conditions: rhesus monkeys, 15 mg/kg×3 days; cited from earlier work
# P. berghei = conditions: administered orally; cited from earlier work
# [4] = in vivo; cited from earlier work
# P. coatneyi malaria = experiment: AL/LY Efficacy in Uncomplicated Malaria (rhesus); assay type: in vivo; conditions: control animal, 7 days of IM BID
# Method: 1. AL/LY Efficacy in Uncomplicated Malaria (done with PK trial)
# i. 10 splenectomized rhesus with mild P. coatneyi malaria (mean parasitemia 773K/μl or 11.8%) and one quinine control (773K/μl or 13.5%). All asymptomatic.
# ii. 11.8 mg/kg loading dose given IV push over 3 minutes, then 5.9 mg/kg for 2 days
# severe malaria = experiment: Efficacy in Severe Malaria (rhesus); assay type: in vivo
# [5] = aqueous solution made in 5% sodium bicarbonate; cited from earlier work
# [6] = Intravenous toxicity and tolerance in rat; assay type: in vivo; conditions: in 5% sodium carbonate vehicle
# Source text: Although a ready-to-use intravenous solution in a multiple dose vial is a convenient and preferable formulation, current formulation of dissolving preformed AL/LY salt in 0.3% of L-lysine/saline solution prior to administration has been used satisfactorily to assess the efficacy and toxicity of AL in rat, Aotus and Rhesus monkey models.
compound,measurement,setting,value
CC1CCC2C(C)C(OCc3ccc(C(=O)O)cc3)OC3OC4(C)CCC1C32OO4.N=C(N)NCCCC(N)C(=O)O (stereo not shown) [AL-arginine salt],colour of aqueous solution on standing,"[1]; room temperature, within two days to one week",turned to deep red color
"C[C@H]1[C@H](OC(=O)CCC(=O)O)O[C@@H]2O[C@@]3(C)CC[C@H]4[C@H](C)CC[C@@H]1[C@@]24OO3 [AS, artesunic acid]",CNS toxicity versus oil soluble analogs such as artemether and arteether,[2],substantially less CNS toxicity
"C[C@H]1[C@@H](OCc2ccc(C(=O)[O-])cc2)O[C@@H]2O[C@]3(C)CC[C@H]4[C@H](C)CC[C@@H]1[C@@]24OO3.[Na+] [Na-AL, Sodium artelinate]",solubility in distilled water,[3],does not dissolve completely
same,solubility in sodium carbonate solution,[3],very soluble
same,water solubility,[3],> 60 mg/mL
same,time the solution stayed clear,"[1]; in sodium carbonate 0.1 to 0.5%, depending on concentration",from one week to one month
same,appearance of freshly prepared aqueous solution on standing,[1]; room temperature,turned turbidity
same,decomposition product on standing,[1]; room temperature for three months,No decomposition product was detected
same,crystal formation on longer standing,"[1]; sodium carbonate solutions, room temperature, longer period, free artelinic acid",crystallized out from all solutions
same,cure of infection,P. knowlesi,complete cures
same,efficacy,P. berghei,highly effective
same,plasma half-life,[4],90 to 180 min
"CCO[C@H]1O[C@@H]2O[C@@]3(C)CC[C@H]4[C@H](C)CC[C@@H]([C@H]1C)[C@@]24OO3 [arteether, Arteether]",plasma half-life,[4],short plasma half-life
same,CNS toxicity,[2],fatal CNS toxicity
"CO[C@H]1O[C@@H]2O[C@@]3(C)CC[C@H]4[C@H](C)CC[C@@H]([C@H]1C)[C@@]24OO3 [artemether, Artemether]",plasma half-life,[4],short plasma half-life
same,CNS toxicity,[2],fatal CNS toxicity
C=C[C@H]1C[N@@]2CC[C@H]1C[C@H]2[C@H](O)c1ccnc2ccc(OC)cc12 [quinine],day on which parasitemia cleared,P. coatneyi malaria,8 days
same,cure,severe malaria; IM BID for 7 days,all cured
same,"parasitemia cleared, mean time",severe malaria; IM BID for 7 days,5.6 days
same,time to resolution of severe malaria symptoms,severe malaria; IM BID for 7 days,3 days
same,survived,"severe malaria; IM BID for 7 days, controls (4 of 5)",80%
same,died,severe malaria; therapy delayed 24 hours,50%
"C[C@H]1[C@H](OC(=O)CCC(=O)[O-])O[C@@H]2O[C@@]3(C)CC[C@H]4[C@H](C)CC[C@@H]1[C@@]24OO3.[Na+] [sodium artesunate, Sodium artesunate]",time within which dihydroartemisinin precipitates out from unused solution,[5],2 to 3 h
same,plasma half-life,[4],20 to 30 min
artelinic acid [AL],water solubility,[3],not water soluble
same,LD50,[6]; female rat,50 mg/kg
same,LD50,[6]; male rat,67 mg/kg
same,CNS toxicity versus oil soluble analogs such as artemether and arteether,[2],substantially less CNS toxicity
